In paper PMC8322648, “Brevibacillin 2V Exerts Its Bactericidal Activity via Binding to Lipid II and Permeabilizing Cellular Membranes” (Frontiers in Microbiology, 2021):
No end group written: not given here.

Columns and labels:
[1] = system: S. aureus ATCC15975 (MRSA); assay: Time-killing assay; type: cell-based, Staphylococcus aureus; conditions: MHB, 37°C; for time to complete killing of all cells: 10 × MIC (nisin 40 μg/ml; brevibacillins 20 μg/ml), ≈ 5 × 10^6 cells per ml, 220 rpm, triplicate
Method: This assay was performed according to a previously described procedure ([Ling et al., 2015]; [Zhao et al., 2020b]). An overnight culture of cells [S. aureus ATCC15975 (MRSA)] was diluted 50-fold in MHB and incubated at 37°C with aeration at 220 rpm. Bacteria were grown to an OD600 of 0.5, and then, the concentration of cells was adjusted to ≈ 5 × 10^6 cells per ml. Bacteria were then challenged with nisin (40 μg/ml), brevibacillin (20 μg/ml), brevibacillin V (20 μg/ml), brevibacillin I (20 μg/ml), or brevibacillin 2V (20 μg/ml) in culture tubes at 37°C and 220 rpm (peptides at 10 × MIC, a desirable concentration at the site of infection). Bacteria not treated with peptides were used as negative controls. At desired time points, 200 μl aliquots were taken, centrifuged at 8,000 g for 2 min, and resuspended in 200 μl of MHB. 10-fold serially diluted samples were plated on MHA plates. After incubated at 37°C overnight, colonies were counted and c.f.u. per ml was calculated. Each experiment was performed in triplicate.

HepG2 = conditions: Figure 1, ref Zhao et al., 2021; cited from earlier work
Description: (§1) A vast number of bacterial non-ribosomally produced peptides (NRPs) have shown strong antimicrobial activity against pathogenic bacteria ([Cochrane et al., 2014]; [Cociancich et al., 2015]; [Hamamoto et al., 2015]; [Ling et al., 2015]; [Süssmuth and Mainz, 2017]). Lipo-tridecapeptides, a class of NRPs, show strong antimicrobial activity against Gram-positive pathogens, including antibiotic-resistant Staphylococcus aureus and Enterococcus spp. ([Barsby et al., 2001], [2006]; [Yang et al., 2016]; [Wu et al., 2019]; [Zhao et al., 2021]). However, many of these lipo-tridecapeptides have shown high ... || Figure 1 Structures of brevibacillins. The red color indicates the more hydrophobic amino acid residues of brevibacillin V, brevibacillin and brevibacillin I relative to brevibacillin 2V. MIC, the minimum inhibitory concentration against Staphylococcus aureus (MRSA). HC50, the 50% human blood cell hemolysis concentration. CC50, the 50% cell (HepG2) toxicity concentration.

human red blood cells = conditions: Figure 1, ref Zhao et al., 2021; cited from earlier work
Description: as §1

[2] = system: S. aureus ATCC15975 (MRSA) membrane; assay: DiSC3(5) membrane potential assay; type: cell-based, Staphylococcus aureus; conditions: 2 × MIC
Method: Staphylococcus aureus ATCC15975 (MRSA) was grown to an OD600 of 0.8. The culture was pelleted at 5,000 × g for 5 min and washed three times in 10 mm HEPES with 10 mm glucose (pH 7.2). The cell density was normalized to an OD600 of 0.2, loaded with 2 μm DiSC3(5) dye, and incubated for 20 min in the dark for probe fluorescence to stabilize. After incubation, KCl was added to the cell suspension at a final concentration of 100 mm. Subsequently, the cell suspension was added to a 96-well microplate and incubation for 5 min; after that, antibiotics were added at a final concentration of 2 × MIC. Fluorescence was monitored for 25 min, with the antibiotics added after ~20 s. The excitation and emission wavelengths on the fluorescence spectrometer were adjusted to 622 nm and 670 nm, respectively. Representative examples from three technical replicates are shown.

[3] = ref Zhao et al., 2021; cited from earlier work
[4] = system: Staphylococcus aureus (MRSA); conditions: Staphylococcus aureus (MRSA); Figure 1; ref Zhao et al., 2021; cited from earlier work
Description: Figure 1 Structures of brevibacillins. The red color indicates the more hydrophobic amino acid residues of brevibacillin V, brevibacillin and brevibacillin I relative to brevibacillin 2V. MIC, the minimum inhibitory concentration against Staphylococcus aureus (MRSA). HC50, the 50% human blood cell hemolysis concentration. CC50, the 50% cell (HepG2) toxicity concentration. […] LUVs-based CF leakage assay is widely used in the studies of the antibiotic mode of action ([Hasper et al., 2004]; [Smith et al., 2008]; [Slootweg et al., 2015]; [Bakhtiary et al., 2017]). Disruption of the vesicle membrane by certain compounds releases CF from the LUVs into the extra-vesicular milieu resulting in increased fluorescence signal (Figure ...

[5] = ref Varney et al., 2013; Bakhtiary et al., 2017; cited from earlier work
Method: To investigate the role of Lipid II-binding ability of brevibacillins in their membrane disruption capacity, CF leakage assays were performed using LUVs composed of DOPC with or without Lipid II and containing CF at self-quenching concentrations. LUVs-based CF leakage assay is widely used in the studies of the antibiotic mode of action ([Hasper et al., 2004]; [Smith et al., 2008]; [Slootweg et al., 2015]; [Bakhtiary et al., 2017]). Disruption of the vesicle membrane by certain compounds releases CF from the LUVs into the extra-vesicular milieu resulting in increased fluorescence signal (Figure ...

[6] = system: S. aureus ATCC15975 (MRSA); assay: Spot-on-lawn assay with Lipid II; type: cell-based, Staphylococcus aureus; conditions: brevibacillins 0.68 μg, nisin and daptomycin 1.36 μg; Lipid II 300 μM, 4 μl, at edge of halo; MHA, 37°C overnight
Method: An overnight cultured S. aureus ATCC15975 (MRSA) was added to 0.6% MHA (w/v, temperature 42°C) at a final concentration of 0.1% (v/v), and then, the mixture was poured to the plates 10 ml for each. The binding of peptide and Lipid II ([Hasper et al., 2006]) was further evaluated by spotting of purified Lipid II (300 μm, 4 μl) to the edge of inhibition halo of antibiotics (brevibacillins, 0.68 μg; nisin and daptomycin, 1.36 μg). Briefly, antibiotics were loaded to the agar plate. After the antibiotic solution drops had dried, purified Lipid II was spotted to the edge (identified by a pre-experiment) of inhibition halo of antibiotics ([Wang et al., 2020]). After the Lipid II solution drops had dried, the plates were transferred to a 37°C incubator for overnight incubation.

[7] = membrane-embedded Lipid II; ref Islam et al., 2012; ‘t Hart et al., 2016; Bakhtiary et al., 2017; Chiorean et al., 2020; cited from earlier work
Method: After confirmation of the fact that brevibacillins bind to Lipid II, an ITC assay was performed to determine the binding affinity of brevibacillins for Lipid II. For this, 2 mol % Lipid II was incorporated into DOPC-based LUVs. […] Nisin, teixobactin, nukacin ISK-1, and lacticin 3147 ...

[8] = system: S. aureus ATCC15975 (MRSA); assay: Fluorescence microscopy, LIVE/DEAD BacLight (SYTO 9/propidium iodide); type: cell-based, Staphylococcus aureus; conditions: 2 × MIC (brevibacillins 4 μg/ml, nisin 8 μg/ml), 15 min, room temperature
Method: (§2) Staphylococcus aureus ATCC15975 (MRSA) was grown to an OD600 of 0.8. The culture was pelleted at 5,000 × g for 5 min and washed three times in 10 mm HEPES with 10 mm glucose (pH 7.2). After normalization of the cell density to an OD600 of 0.2 in 10 mm HEPES with 10 mm glucose (pH 7.2), a 2-fold MIC concentration of brevibacillins (4 μg/ml) or nisin (8 μg/ml) was added. At the same time, SYTO® 9 and propidium iodide (LIVE/DEAD Baclight Bacterial Viability Kit, Invitrogen) were added to the above cell suspensions. After incubation at room temperature for 15 min, peptides were removed and washed three times with 10 mm HEPES with 10 mm glucose (pH 7.2). Then, the cell suspensions were loaded on 1.5% agarose pads and analyzed by DeltaVision Elite microscope (Applied Precision; [Zhao and Kuipers, 2021]).

S. aureus (MRSA) = assay: Membrane permeability assay, concentration series (fluorescence microscopy); type: cell-based, Staphylococcus aureus; conditions: 100 nM and 400 nM, 15 min; ratio of membrane permeabilized cells; three independent experiments; p < 0.05
Method: as §2
GraphPad Prism 7.0 was used to fit the data of time-killing assay, DiSC3(5) assay, fluorescence quenching assay, ITC assay, and CF Leakage assay in Figures 3–7. The fluorescence images (ratio of membrane permeabilized cells) were quantified by the software Adobe Photoshop 2021. The Kd values of brevibacillins to Lipid II were calculated using the Nano Analyze Software (Waters LLC). The statistical significance of the data was assessed using Duncan’s multiple range test with the software SPSS Statistics 26; values of p < 0.05 were considered to be statistically significant.
Figure 7 Brevibacillins disrupt membrane permeability without the need for Lipid II binding. (A), Cartoon schematic of the assay used to assess membrane permeability disruption of brevibacillins. (B), CF releases (%) vs. time graph showing the effects of adding brevibacillins to DOPC-LUVs with 0.1% Lipid II; peptide concentrations were 100 nm; a, when peptides were added; and b, when 20% Triton X-100 added. (C), CF releases (%) vs. time graph showing the effects of adding brevibacillins to LUVs of pure DOPC; peptide concentrations were 100 nm; a, when peptides were added; and b, when 20% Triton X-100 was added. (D), fluorescence microscopic images of S. aureus (MRSA) after have been treated by a series concentrations of brevibacillins and nisin for 15 min. (E), the ratio of membrane permeabilized cells that was quantified by Adobe Photoshop 2021; the data are representative of three independent experiments.
To investigate the in vivo membrane disruption capacity of brevibacillin and brevibacillin 2V, a membrane permeability assay was performed with a series of concentrations of antibiotics. Nisin was used as a control.

[9] = Pyrene-labeled Lipid II fluorescence quenching assay; type: binding; conditions: 50 μM DOPC LUVs with 0.5 mol % pyrene-labeled Lipid II, 20°C, ex 350 nm
Method: The effects of antibiotics on pyrene-labeled Lipid II were measured using 50 μm DOPC-based large unilamellar vesicles (LUVs) containing 0.5 mol % pyrene-labeled Lipid II ([Breukink et al., 2003]). Briefly, the LUVs were added to a quartz cuvette and titrated with nisin, brevibacillin, or brevibacillin 2V with stirring at 20°C. The fluorescence spectra were recorded between 360 and 600 nm (λex350 nm) using a Cary Eclipse Fluorescence Spectrophotometer (Agilent, United States).

[10] = 31P solid-state NMR of Lipid II in liposomes; type: binding; conditions: DOPC vesicles with 2 mol % Lys-Lipid II, 20 mM HEPES, 100 mM NaCl, pH 8; 200 nmol antibiotic, 100 nmol Lipid II; 500 MHz, 10 kHz MAS, 270 K
Method: Multi-lamellar vesicles of DOPC doped with 2 mol % Lys-Lipid II in buffer (20 mm HEPES, 100 mm NaCl, and pH = 8) were collected by centrifugation (60,000 × g) and loaded into 3.2 mm ssNMR rotors. For 3.2 mm rotors, we used 200 nmol of antibiotic with 100 nmol of Lipid II. The 1D ^31P ssNMR experiments were performed at 500 MHz (^1H frequency) magnetic field using 10 kHz magic angle spinning (MAS) at 270 K sample temperature.

For Brevibacillin V, the “killing kinetics / capacity, in words” value ([1]; 10 × MIC (brevibacillins 20 μg/ml; nisin 40 μg/ml)) is given as “intermediate killing capacity”, the “time to complete killing of all cells” value [1] is given as ≤ 2 h and the “CC50, 50% cell (HepG2) toxicity concentration” value (HepG2) is given as 9.89 ± 0.67 mg/L. For the same substance, the “HC50, 50% human blood cell hemolysis concentration” value (human red blood cells) was 73.1 ± 1.4 mg/L, the “speed of membrane permeabilization” value [2] was “appeared to act faster than brevibacillin 2V and the well-known pore-forming antibiotic nisin” and the “rank order of membrane disruption capacity” value ([2]; correlates with calculated hydrophobicity) was “brevibacillin I > brevibacillin > brevibacillin V > brevibacillin 2V”. The “rank order of calculated hydrophobicity” value [3] was “brevibacillin I > brevibacillin > brevibacillin V > brevibacillin 2V” and the MIC [4] was 2 mg/L.

For HNP-1: Lipid II-targeting antimicrobial, the “membrane disruption in Lipid II containing and Lipid II lacking LUVs” value [5] is listed as “cause membrane disruption in both Lipid II containing LUVs and Lipid II lacking LUVs”.

In the case of daptomycin, the “antimicrobial activity upon addition of purified Lipid II” value [6] is reported as “kept its antimicrobial activity against S. aureus (MRSA)”.

In the case of lacticin 3147, the “membrane disruption in Lipid II containing and Lipid II lacking LUVs” value [5] is given as “cause membrane disruption in both Lipid II containing LUVs and Lipid II lacking LUVs” and the Kd [7] is given as 920 nM.

In the case of “nisin: well-known Lipid II-targeting antibiotic, pore-forming, used as control (ITSISLCTPGCKTGALMGCNMKTATCHCSIHVSK; not fully specified (some residues, bridges); cysteine pairing not given here; UniProt P13068 24-57, looked up) [reference compound]”, the “antimicrobial activity upon addition of purified Lipid II” value [6] is reported as “diminished”, the “time to complete killing of all cells” value [1] is reported as ≤ 4 h and the “membrane integrity (SYTO 9 / propidium iodide staining)” value [8] is reported as “turned red, indicative of a compromised membrane”. For the same substance, the “membrane permeabilization capacity, comparison” value (S. aureus (MRSA)) was “significantly (p < 0.05) higher membrane permeabilization capacity than the brevibacillins”, the Kd [7] was 14.6 nM and the “excimer fluorescence (about 490 nm)” value [9] was “appearance of a fluorescence peak around 490 nm, indicating the formation of excimers”. For the same substance, the pyrene monomer fluorescence [9] was “clearly induced a decrease of pyrene monomer fluorescence”.

With vancomycin [reference compound] the “31P signals of Lipid II pyrophosphate moiety” value [10] was “no changes observed for the Lipid II pyrophosphate signals”.
